In patent US7160916B2, “Method of increasing bone density or treating osteoporosis” (Yung Shin Pharmaceutical Ind. Co., Ltd., priority 2003, dated 2007):
Marks after values point to notes of the source that are not given here.

What was measured:
[1] = system: ovariectomized adult female rats; assay: Ovariectomy-induced bone loss: bone size, BMD, BMC, bone volume; assay type: in vivo, rat
Description: Bone histomorphometry: After formalin fixation of tibia was completed, the tibiae were then decalcified in 0.5 N hydrochloric acid, dehydrated in an ascending series of ethanol solution and acetone, and embedded in paraffin. Serial sections (5 μm) were cut longitudinally and stained with Mayer's hematoxylin-eosin solution (Yang et al. (1993) Calcif Tissue Int 52:57–61). Images of the growth plate and proximal tibia were photographed using a photoMicroGraphic Digitize integrate System (MGDS; Total-Integra Technology Co., Ltd., Taipei, Taiwan). Bone volume measurements were performed on the whole secondary spongiosa, which is located under the primary spongiosa and characterized by a network of larger trabeculae. Bone volumes were calculated using an image analysis software. All measurements were done in a single-blind fashion. Ovariectomy and cut of sciatic nerve: Ovariectomy and cut of sciatic nerve were performed in adult female and male rats (3 month-old), respectively. After surgery, the rats were injected with Indazole 1 (i.p., 1 mg/Kg) or a vehicle daily for 4 weeks. On the day following the last injection, the rats were sacrificed and their tibia and femur were removed. Tibia and femur Preparation: At the end of the program, the rats were sacrificed by decapitation. The tibiae were removed, cleaned of soft tissue, and the length of the tibia was measured with a precision caliper (±0.05 mm) as described by Weinreb et al. (1991) J Bone Miner Res 6:725–731. The tibiae were fixed in 10% formaldehyde for 48 h at 4° C. for bone histomorphometry analysis. Some of the tibia and femur were also removed and kept at −20° C. for bone mineral analysis. Analysis of bone mineral density (BMD) and content (BMC): BMD and BMC of the tibia and femur were measured with a dual-energy X-ray absorptiometer (DEXA, XR-26; Norland, Fort Atkinson, Wis.). The mode adapted to the measurements of small subjects was adopted. A coefficient of variation of 0.7% was calculated from daily measurements of BMD on a lumbar phantom for more than 1 year (Yang et al. (1998) Calcif Tissue Int 63:86–90). The tibia and femur were thawed to room temperature before bone mineral analysis. The whole tibiae and femur were scanned and BMD and BMC were measured by absorptiometer. Prevention of bone loss: Ovariectomy (OVX) was performed in adult female rats (n=28). After ovariectomy, one group of the ovariectomized rats (n=16) were injected with Indazole 1 (i.p., 1 mg/kg/day), and the other group (n=12) were not. 15 un-ovarietctomized adult female rats were used as sham-operated controls and were not injected with Indazole 1. […] A 60% reduction in bone volume was observed 4 weeks after ovariectomy. […] The bone volume reached 76% of sham-operated controls.

[2] = system: ovariectomized adult female rats; assay: Biomechanical three-point bending test of femurs of OVX rats; assay type: in vivo, rat
Method: Ovariectomy and cut of sciatic nerve: Ovariectomy and cut of sciatic nerve were performed in adult female and male rats (3 month-old), respectively. After surgery, the rats were injected with Indazole 1 (i.p., 1 mg/Kg) or a vehicle daily for 4 weeks. On the day following the last injection, the rats were sacrificed and their tibia and femur were removed. Biomechanical three-point bending test: Mechanical properties of bone tissues were measured via a three-point bending test using a MTS-858 testing machine (MTS System Inc., Minneapolis, Minn.). The span of two support points was 20 millimeters and the deformation rate was 1 mm/min. Load/deformation curves were acquired by Team 490 software (version 4.10, Nicolet Instrument Technologies Inc., Madison, Wis.). Sigma Plot 6.0 software (SPSS Inc., Chicago, Ill.) was used to calculate extrinsic material properties of bone samples, including maximal load, ultimate load, energy to maximal load, energy to ultimate load, and linear stiffness. Energy to maximal load and energy to ultimate load were calculated as the areas under the load/deforming curves. Stiffness was calculated as the slope of the linear portion of the load/deformation curves. The cross-sectional moment of inertia was calculated under the assumption that the cross-sections were elliptically shaped (Turner et al., The effects of fluoridated water on bone strength. Orthop Res (1992) 10: 581–587). Maximal stress, ultimate stress, and elastic modulus (Young's modulus) were calculated using the methods described in Turner et al., Basic biomechanical measurements of bone: a tutorial, Bone (1993) 14:595–608.

cultured osteoblasts = assay: Collagen synthesis (4-hydroxyproline content); assay type: cell-based, rat; conditions: only at a higher concentration of 10 μM
Method: von Kossa staining: Osteoblasts were cultured in DMEM containing 50 μg/ml vitamin C and 10 mM β-glycerophosphate for 2 weeks and the medium was changed every 3 days. To examine nodule formation, the cells were fixed in 4% paraformaldehyde for 10 min, rinsed with water, stained with 1% silver nitrate, placed under a UV lamp for 30 min and rinsed with water before treating with 5% sodium thiosulfate for 2 min. The cells were then washed twice with water and counterstained with 1% Safranin-O to visualize the matrix. The number of nodules formed per well was counted under a light microscope. Collagen synthesis was determined by measuring the 4-hydroxyproline content in cultured osteoblasts. Cells cultured in DMEM containing 50 μg/ml vitamin C and 10 mM β-glycerophosphate for 2 weeks were hydrolyzed in 6N HCl for 16 h at 116° C. After lyophilizing and reconstituting a lysate in distilled water, the amount of 4-hydroxyproline was determined by spectrophotometry at 550 nm as described by Berg (1982) Meth Enzymol. 82: 372–398.

[3] = OVX rats, 1 mg/kg daily for 4 weeks
[4] = OVX rats, i.p. 1 mg/kg daily for 1 month, mean ± S.E.
[5] = femurs, OVX rats, i.p. 1 mg/kg daily for 4 weeks

With `OCc1ccc(-c2nn(Cc3ccccc3)c3ccccc23)o1` [Indazole 1, 1-benzyl-3-(5′-hydroxymethyl-2′-furyl)-indazole] the “bone volume relative to sham-operated controls” value [1, 3] was 76 % of sham-operated controls, the “loss of trabecular bone of tibia secondary spongiosa” value [1, 3] was “reduced loss of trabecular bone” and the “Femur BMC” value [1, 4] was 0.281 ± 0.001^b. The “Femur BMD” value [1, 4] was 0.112 ± 0.002^b, the Femur length [1, 4] was 3.55 ± 0.01 cm and the Femur weight [1, 4] was 0.87 ± 0.01 g. For the same compound, the “Tibia BMC” value [1, 4] was 0.173 ± 0.011^b, the “Tibia BMD” value [1, 4] was 0.097 ± 0.002^b and the Tibia length [1, 4] was 4.05 ± 0.03 cm. The Tibia weight [1, 4] was 0.67 ± 0.01 g, the “ovariectomy-induced loss of BMD and BMC in both tibia and femur” value ([1]; daily injection, i.p. 1 mg/kg/day) was “provided protection” and the Maximal load [2, 5] was 100.5 ± 3.0 N. For the same compound, the Ultimate load [2, 5] was 79.8 ± 3.3 N, the Ultimate stress [2, 5] was 14.6 ± 2.5 Mpa and the “ultimate stress and Young's modulus of femurs compared with sham-operated controls” value ([2]; treated OVX rats) was “only slightly lower”. The collagen synthesis (cultured osteoblasts) was “increased”.
